# According to patent US20240226054A9, “AGENTS AND METHODS FOR PREVENTING AND TREATING SKELETAL MUSCLE DISEASES” (The Regents Of the University of California, priority 2022, published 2024):
# “Also recorded” adds a separate entry of the source. Read-outs that look alike come from different tables or passages of the source.
# Columns and labels:
# [1] = tested on: soleus muscle from the Nav1.4-R669H mouse; assay type: cell-based
# Description: (§1) Mouse Model of HypoPP. Knock-in mutant mouse models of HypoPP were previously generated; Type 1 with a missense mutation of the Cav1.1 calcium channel (Cacnals p.R528H) and Type 2 with a missense mutation of the Nav1.4 sodium channel (Scn4a p.R663H) homologous to the p.R669H missense mutation in patients with HypoPP Type 2. Mutant mice have a robust HypoPP phenotype with loss of force and paradoxical depolarization of skeletal muscle in response to a challenge in low extracellular [K^+] (<3 mM) or to intravenous administration of insulin plus glucose.
# Ex vivo Contraction Studies. The outcome measure for susceptibility to HypoPP was the peak isometric force of the soleus muscle, in response to a tetanic stimulation, as previously described. In brief, after euthanizing the animal, the extensor digitorum longus (EDL) muscle or the soleus muscle was dissected free and suspended in a tissue bath held at 37° C. […] Muscles were suspended in a bicarbonate-buffered bath that was bubbled continuously with 5% CO2/95% 02 to maintain a pH of 7.4. The standard bath consisted of (in mM): 118 NaCl, 4.75 KCl, 1.18 MgSO4, 2.54 CaCl2), 1.18 NaH2PO4, 10 glucose, and 24.8 NaHCO3. The low-K^+ solution was identical, except for the reduction of KCl to 2 mM by replacement with NaCl. The osmolality of all solutions was 290 mOsm. Retigabine (gift from Prof. M. Taglialatela, Univ. […] The Kv7 inhibitor, XE991 (Sigma-Aldrich), was prepared in as a 100 mM DMSO stock solution and applied to muscle in a […] bath solution.
# Electrical stimulation was applied by a pair of platinum wires, oriented perpendicular to the long axis of the soleus muscle. Suprathreshold stimulation (80 mA) was applied as a tetanic burst (40 pulses, 0.4 msec, at 100 Hz), under computer control. All bath solutions contained 0.25 mM D-tubocurarine (Sigma-Aldrich) to prevent any contribution to muscle excitation from motor nerve endings. Muscle force was measured with a stiff strain gain (Forte 25, World Precision Instruments) and digitally sampled at 5 KHz. Muscle contractility was monitored by measuring the peak isometric force every two minutes, and test solutions were applied by complete exchange of the bath solution.
# The efficacy of potassium channel openers to prevent the loss of force in HypoPP muscle was assessed by measuring isometric contractions, ex vivo, in both control (4.7 mM) and low extracellular [K^+] (2.0 mM). The HypoPP phenotype is shown for the drug-free responses of the soleus muscle from an Nav1.4-R669H mouse in the left panel of FIG. 1A. The peak isometric force during the tetanic contraction (100 Hz stimulation) was initially 11.7 gm in control [K^+], and then decreased to 7.6 gm (35% decrease) after 4 min. in 2 mM [K^+]. The loss of force is reversible, upon return to 4.7 mM [K^+] (e.g., see FIG. 1B).
# A method to quantify the extent of protection from loss of force by retigabine is illustrated in FIG. 2. This example was selected to illustrate the maximum variability in the extent of protection for the oscillations of soleus muscle force within a single trial (compare the responses at 24 min to those at 40 min.). […] The relative protection was calculated from the responses for each pair of soleus muscles from the same mouse serving as an internal control. In almost every trial (22 out of 24), two clear minima occurred during the 30 min. low-K^+ challenge. The relative protection for the retigabine response, defined as 1−(force loss in retigabine)/(force loss in control) was calculated for each of the two minima, and the average value was used as the quantitative estimate for the retigabine protection in that trial. Each soleus muscle was used for only a single trial (i.e. control or retigabine) because cumulative effects and run-down may occur if this long protocol (typically 70 min.) was repeated.
# human HypoPP muscle = conditions: 100 mM pinacidil; cited from earlier work
# [2] = tested on: EDL muscle from the Cav1.1-R528H mouse; test: Ex vivo contraction test, low-K+ challenge, HypoPP EDL muscle; assay type: cell-based
# Description: as §1
# Ex vivo Contraction Studies. The outcome measure for susceptibility to HypoPP was the peak isometric force of the soleus muscle, in response to a tetanic stimulation, as previously described. In brief, after euthanizing the animal, the extensor digitorum longus (EDL) muscle or the soleus muscle was dissected free and suspended in a tissue bath held at 37° C. […] Muscles were suspended in a bicarbonate-buffered bath that was bubbled continuously with 5% CO2/95% 02 to maintain a pH of 7.4. The standard bath consisted of (in mM): 118 NaCl, 4.75 KCl, 1.18 MgSO4, 2.54 CaCl2), 1.18 NaH2PO4, 10 glucose, and 24.8 NaHCO3. […]
# Electrical stimulation was applied by a pair of platinum wires, oriented perpendicular to the long axis of the soleus muscle. […] Muscle force was measured with a stiff strain gain (Forte 25, World Precision Instruments) and digitally sampled at 5 KHz. Muscle contractility was monitored by measuring the peak isometric force every two minutes, and test solutions were applied by complete exchange of the bath solution.
# A method to quantify the extent of protection from loss of force by retigabine is illustrated in FIG. 2. […] The relative protection was calculated from the responses for each pair of soleus muscles from the same mouse serving as an internal control. […] The relative protection for the retigabine response, defined as 1−(force loss in retigabine)/(force loss in control) was calculated for each of the two minima, and the average value was used as the quantitative estimate for the retigabine protection in that trial. […]
# [3] = chronic use as antiepileptic, cited from earlier work
# [4] = tested on: soleus muscle obtained from the knock-in mutant mouse model of HyperPP; test: In vitro contraction test, high K challenge, HyperPP soleus muscle; assay type: cell-based
# Description: The two paired muscles (left and right) were tested in separate organ baths. […] At 40 min into the study, a high K challenge was performed by exchanging the 4.7 mM K+ bath with one containing 10 mM K+.
# [5] = tested on: EDL fibers from the Nav1.4-R669H mouse; test: Membrane potential measurements (resting potential, microelectrode impalement); assay type: cell-based
# Description: Membrane Potential Measurements. The membrane potential was recorded by impalement of superficial fibers from an ex vivo whole mount of the EDL muscle. Long-duration stable recording of the resting potential was achieved by using an orthogonal approach to the fiber with fine-tipped microelectrodes (resistance of 15-20 MW, filled with 3 M KCl). The bath solution was the same as that used for the ex vivo contraction studies, continuously bubbled with 5% CO2/95% O2, with a flow rate of ˜3 ml/min of the 0.3 ml recording chamber.
# The impairment of contraction during an episode of HypoPP is caused by sustained depolarization, which inactivates sodium channels and reduces muscle fiber excitability. In HypoPP, ictal depolarization of the resting potential (Vrest) paradoxically occurs in low K^+ that would normally hyperpolarize the membrane from a negative shift of the K^+ Nernst potential (EK). It was tested whether retigabine prevents or reverses this paradoxical depolarization of HypoPP fibers exposed to low K^+. […] Reduction of K^+ to 2 mM or even 1 mM caused hyperpolarization of WT fibers, as expected from the negative shift of EK (FIG. 5A, gray shaded regions). At an extremely low K^+ of 0.5 mM, even WT fibers paradoxically depolarized (magenta region) as previously described. For EDL fibers from the Nav1.4-R669H mouse, the more modest K^+ reductions to 2 mM or 1 mM elicited paradoxical depolarization, which is the membrane potential equivalent of ictal HypoPP. […] These observations support the view that the beneficial effects of retigabine occur by a stabilizing effect on the normally polarized value of Vrest.
# Kv7.1 = Kv7.1 (Homo sapiens, UniProt P51787); conditions: cited from earlier work
# [6] = cited from earlier work
# mouse = conditions: 30 mg/kg retigabine; cited from earlier work
# [7] = tested on: pharmacological model of Andersen-Tawil Syndrome (barium blocks Kir potassium channels); test: Low K challenge in pharmacological model of Andersen-Tawil Syndrome (50 μM barium); assay type: cell-based; conditions: pre-administration of 10 μM retigabine
# Description: A pharmacological model of Andersen-Tawil Syndrome (ATS) is created, in vitro, with a low concentration of barium (50 μM), which blocks Kir potassium channels. Kir2.1 is deficient from loss of function mutations of the KCNJ2 gene in ATS.
# [8] = tested on: mouse muscle (mouse models of myotonia); conditions: cited from earlier work
# rat = conditions: 30 mg/kg retigabine; cited from earlier work
# Sequence of Kv7.1 (P51787 whole entry): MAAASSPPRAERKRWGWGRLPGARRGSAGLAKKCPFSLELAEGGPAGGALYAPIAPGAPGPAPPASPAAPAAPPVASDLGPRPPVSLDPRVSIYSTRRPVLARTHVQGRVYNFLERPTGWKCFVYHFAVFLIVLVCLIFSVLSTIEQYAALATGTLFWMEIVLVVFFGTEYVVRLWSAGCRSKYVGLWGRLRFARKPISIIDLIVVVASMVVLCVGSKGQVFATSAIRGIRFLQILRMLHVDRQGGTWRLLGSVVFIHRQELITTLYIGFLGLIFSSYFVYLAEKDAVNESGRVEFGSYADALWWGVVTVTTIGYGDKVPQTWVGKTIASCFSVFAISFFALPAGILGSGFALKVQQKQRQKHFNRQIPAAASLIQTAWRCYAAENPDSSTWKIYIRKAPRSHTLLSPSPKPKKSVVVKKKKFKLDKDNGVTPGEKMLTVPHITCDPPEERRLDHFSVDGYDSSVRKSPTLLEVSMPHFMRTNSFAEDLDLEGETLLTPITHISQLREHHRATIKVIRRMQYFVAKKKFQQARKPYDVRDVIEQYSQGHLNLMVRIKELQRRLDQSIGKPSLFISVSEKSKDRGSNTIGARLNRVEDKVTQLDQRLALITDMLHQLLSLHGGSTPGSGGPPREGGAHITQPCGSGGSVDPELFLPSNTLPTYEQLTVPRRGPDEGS
compound,measurement,setting,value
"Cc1cc(N2CCc3cc(F)ccc3C2)cc(C)c1NC(=O)CC(C)(C)C [XEN1101, N-[4-(6-fluoro-3,4-dihydro-1H-isoquinolin-2-yl)-2,6-dimethylphenyl]-3,3-dimethylbutanamide]",increase in baseline force,[1]; XEN1101 10 μM at 10 min,20%
CC(N/C(=N\C#N)Nc1ccncc1)C(C)(C)C (centres unmarked) [pinacidil],protection from loss of force in a low-K+ challenge,[1]; pinacidil pre-treatment,protects HypoPP muscle from a loss of force
same,protection against loss of force,human HypoPP muscle,protect against loss of force
"CCOC(=O)Nc1ccc(NCc2ccc(F)cc2)cc1N [retigabine, ethyl [2-amino-4-[[(4-fluorophenyl)methyl]amino]phenyl]carbamate]","relative peak force, sustained value after recovery","[2]; 10 μM retigabine in 2 mM K+, EDL",0.83
same,recovery from on-going loss of force in low K+,"[2]; 10 μM retigabine, vs contralateral control",Rescue; also recorded: induced a recovery of relative peak force
same,relative force before the low-K+ challenge on addition of retigabine,"[2]; 0.1 to 20 mM, Cav1.1-R528H EDL",not affected
same,protection from low-K+ induced loss of force,[1]; 1 μM retigabine pre-treatment,substantial protection
same,loss of peak force during 30 min challenge with 2 mM K+,[1]; 2 μM retigabine pre-treatment,markedly attenuated the loss of peak force
same,trials with enhanced recovery,[1]; 10 μM retigabine applied during 2 mM K+,5 of 6
same,"relative peak force, sustained value after recovery","[1]; 10 μM retigabine in 2 mM K+, soleus",0.83
same,protection from low-K+ induced loss of force,"[1]; 10 μM retigabine pre-treatment, K+ 4.7 mM to 2 mM",completely suppressed any detectable loss of force
same,relative force in the 2 mM [K+] challenge,"[1]; 10 μM retigabine pre-treatment, representative responses FIG. 1B",> 0.85
same,"improved level of tetanic force in retigabine, of baseline","[1]; 10 μM retigabine, still in 2 mM K+ bath, n=3",83.2%
same,relative force before the low-K+ challenge on addition of retigabine,"[1]; 0.1 to 20 mM, Nav1.4-R669H soleus",not affected
same,baseline force in 4.7 mM K+,[1]; bath containing 10 μM retigabine,unchanged
same,impairment of peak isometric force,"[1]; up to 20 μM retigabine, 400 msec tetanic contraction every two minutes for two hrs",no impairment
same,side effects leading to discontinuation,[3],skin discoloration
same,side effects leading to discontinuation,[3]; listed as Retigabine,skin discoloration and eye abnormalities
same,attenuation of the loss of force,"[4]; 10 μM retigabine pre-treatment, 10 mM K+ challenge",about 50%
same,maximal force after retigabine before challenge (relative),"[4]; 10 μM retigabine, 4.7 mM K+",about 1.0
same,prevention of loss of force in HyperPP model,[4]; retigabine (10 μM),partially effective
same,recovery of force on return of bath K+ to 4.7 mM,[4]; retigabine exposed muscle,full recovery of force
same,Vrest of normally polarized muscle fibers,"[5]; 4.7 K+, retigabine added",does not affect Vrest
same,resting potential of paradoxically depolarized HypoPP fibers (rescue),[5]; retigabine added while low K+ unchanged,repolarized to the normal Vrest; also recorded: induced fiber repolarization
same,paradoxical depolarization of HypoPP fibers during low K+ challenge (protection),[5]; retigabine applied before low K+ (1.0 or 2.0 mM),prevented the paradoxical depolarization
same,sensitivity of Kv7.1 to retigabine relative to Kv7.2-Kv7.5 (fold less sensitive),Kv7.1,100 fold
same,protein binding (assumed),[6]; assumption for unbound fraction,80%
same,Cmax,[6]; single 100 mg oral dose,390 ng/mL
same,half-life,[6]; single 100 mg oral dose,8 h
same,force with tetanic contractions lasting seconds,mouse,loss of force
same,prevention of loss of muscle force with a low K challenge (2 mM),[7],effective a preventing the loss of muscle force
same,"fiber input resistance, resting potential or action potential properties (current-clamp)",[8]; 20 mM retigabine,did not detect a change
same,reduction of ex vivo tetanic force,[8]; 20 or 30 mM retigabine,did not report a reduction
same,after-discharges in mouse models of myotonia,[8]; low-dose retigabine,suppresses after-discharges
same,force with tetanic contractions lasting seconds,rat,loss of force
